Results taken from patent US20240390434A1, “PROBIOTIC ENHANCERS AND USES THEREOF” (Blis Technologies Limited, priority 2021, published 2024).

Tests used:
Type in all cases: cell-based
[1] = system: indicator strains; test: Deferred antagonism assay, producer S. salivarius K12: total strains inhibited; details: for Total number of strains inhibited / Total strains inhibited / Total stains inhibited: K12
Procedure: 1-2 producer strain colonies were transferred from a stock plate into 900 μL of suspension solution using a fresh cotton swab. Following this, suspensions were vortexed, and a sample was inoculated onto solid culture media using a fresh cotton swab. The inoculation was a streak that runs diametrically across the agar plate in a 1.5 cm wide strip. The plate was then incubated. Following incubation all visible colonies were removed by swabbing them from the agar surface. The plates were then treated with chloroform by dispensing 2 ml of chloroform onto 4 cm×4 cm piece of cloth and sealing the inverted agar plate on top for 30 minutes. The plates were then air dried for 30 minutes following chloroforming. 1-2 indicator strain colonies were then transferred from a stock plate into complementary suspension solution. The suspensions were then vortexed, and a sample was inoculated onto the same agar surface. These samples were streaked in a perpendicular direction to the initial producer streak.
Each indicator streak was prepared with fresh a suspension containing cells from a corresponding stock plate containing the indicator strain of interest. Indicator strains suspension samples were transferred using a fresh cotton swab. Results were measured by qualitatively reviewing the subsequent (if any) sizes of the zones of inhibition (ZOI) of indicator strain colony growth. A positive result is when there is a distinctive reduction or complete inhibition of indicator colony growth on the culture medium.
CABCa agar plates containing various concentrations of saccharide were prepared according to the methods described in Method 1. Producer strains were transferred from stock agar plates into 900 μL THB using a fresh cotton swab. A plastic spread plater was cut to approximately 1.2 cm width and then dipped into ethanol and left to air dry to ensure sterility. A 100 μL sample of the producer strain suspension was then dispensed onto the agar surface in a straight line running diametrically across the agar surface in (approximately) 20 μL spots. The spots were spaced approximately 1.5 cm apart from each other. The plastic spreader was then used to evenly distribute the spots across the agar surface in a 1.5 cm wide strip. This step was taken to ensure an even producer streak was inoculated onto the agar surface and provided an approximate measure of the initial inoculum concentration. Separate plastic spreaders were used for samples containing different producer strains. The samples were left to soak into the agar surface until there was no visible liquid remaining on the agar surface (approximately 20 minutes). Following producer streak preparations, the deferred antagonism assay protocol was followed as per Method 2. Results were recorded by measuring the size of the zone of inhibition (ZOI) in mm.
A dose response assay was carried out according to method 3 above, except a 1.2 cm streak was used. For the individual saccharide testing the pH of the producer streak was adjusted after the growth of producer to change the acidic conditions.
A deferred antagonism assay was conducted using K12 or M18 raw ingredient suspended in Todd Hewitt broth (THB). This was spread as a 1.2 cm streak containing approximately 1-2×10^6 cfu down the middle of a CABCa control or CABCa galactose supplemented test plate. After 18 hrs growth at 37° C. with 5% CO2, bacterial growth was removed, and the pH of the agar in the initial streak was measured and adjusted to a pH of 6.5-7.5 using 0.5M sodium carbonate pH11 before sterilizing the agar surface using chloroform vapor. Bacterial test strains were suspended in i-THB before being swabbed across the plates perpendicular to the initial streak. Plates were incubated for a further 18 hrs incubation at 37° C. with 5% CO2 before measuring (mm) any zones of inhibition for each test strain, […]

[2] = system: pathogens implicated in the ENT and Skin infections; test: Deferred antagonism assay with other S. salivarius producer strains
Procedure: (§1) Method: Preparation of solid culture media—CABCa agar plates were prepared with or without either 2.5% w/w raffinose or 0.5% w/w galactose by the addition of 0.5% (w/v) calcium carbonate to solid CAB agar in bottles and then melted by autoclaving at 110° C. for 10 mins. Once cooled, filter sterilised solutions of the saccharides or distilled water were added and mixed and then 20 ml pipetted into petri dishes.
Preparing S. salivarius producer suspension, about 6 colonies of each S. salivarius strain were added into separate tubes containing 1 ml THB and mixed well.
Deferred antagonism assay—100 μl of S. salivarius producer suspensions was dispensed onto CABCa plates supplemented with or without raffinose or galactose as droplets in a vertical line down the middle of the test plate. This suspension was then spread as 1.2 cm streak down the middle of the plate using a cutdown plastic spreader. Plates were incubated for 18 hours at 37° C., 5% CO2 in air.
After incubation, the bacterial growth was then removed from the agar plate using a sterile cotton swab. The pH of the producer streak was then adjusted by placing a 1 cm wide strip of filter paper soaked in 0.5M sodium carbonate pH 11 onto the agar plate to buffer the acid and adjust the pH up to around pH 6.5-7.5.
Plates were surface sterilised with chloroform vapour for 30 minutes, followed by air drying for 30 minutes.
Bacterial indicator suspensions were prepared by adding 3-9 colonies (depending on the size) of each strain into separate tubes containing 3 ml THB. These suspensions were then swabbed across the agar plate perpendicular to the producer streak and then the agar plate was incubated for a further 18 hours at 37° C., 5% CO2 in air.

[3] = system: halitosis-causing gram-negative bacteria F. nucleatum, P. gingivalis and P. intermedia; test: Deferred antagonism assay (anaerobic), producer K12; details: 2.5% w/w raffinose; 0.5% w/w galactose; or combination
Procedure: as §1, with “CABCa” for “Preparation of solid culture media—CABCa”, “without” for “without either”, “raffinose,” for “raffinose or”, “galactose or a combination of both saccharides” for “galactose”
A deferred antagonism assay was conducted using K12 or M18 raw ingredient suspended in THB. This was spread as a 1.2 cm streak containing approximately 1-2×10^6 cfu down the middle of a CABCa control or CABCa galactose supplemented test plate. After 18 hrs growth at 37° C., 5% CO2 in air, bacterial growth was removed, and the pH of the agar in the initial streak was measured and adjusted to a pH of 6.5-7.5 using 0.5M sodium carbonate pH11 before sterilizing the agar surface using chloroform vapor. Bacterial test strains were suspended in THB and swabbed across the plates perpendicular to the initial streak and then the plates were incubated at 37° C. in an anaerobic jar containing an anaeroGen sachet for 4 days. Zones of inhibition for each test strain were then measured (mm).

[4] = system: M. catarrhalis TW2; test: Dose response deferred antagonism assay, producer M18

## OC[C@H]1O[C@H](OC[C@H]2O[C@H](O[C@]3(CO)O[C@H](CO)[C@@H](O)[C@@H]3O)[C@H](O)[C@@H](O)[C@@H]2O)[C@H](O)[C@@H](O)[C@H]1O [Raffinose, D-(+) Raffinose pentahydrate]
[1]; Raffinose 1.7% wt
  Total number of strains inhibited: 6
[1]; Raffinose 1.7% wt, pH adjusted
  Total number of strains inhibited: 5
[1]; Raffinose 2.5% wt
  Total number of strains inhibited: 7
[1]; Raffinose 2.5% wt, pH adjusted
  Total number of strains inhibited: 6
[1]; Raffinose 3.3% wt
  Total number of strains inhibited: 5
[1]; Raffinose 3.3% wt, pH adjusted
  Total number of strains inhibited: 5
[1]; Raffinose 5% wt
  Total number of strains inhibited: 6
[1]; Raffinose 5% wt, pH adjusted
  Total number of strains inhibited: 6
[1]; Raffinose 10% wt
  Total number of strains inhibited: 6
[1]; Raffinose 10% wt, pH adjusted
  Total number of strains inhibited: 6
[1]; saccharide 3.3% w/v
  Total strains inhibited: 3/3
[1]; saccharide range 2.5%-10% w/v
  Total strains inhibited: 3/3
[1]; Raffinose 1.7, 2.5, 3.3 and 5%, K12 or M18
  number of the indicators tested inhibited: at least 7
[1]; Raffinose (2.5%)
  inhibitory spectrum of K12 or M18: inhibit several ENTR, dental and skin pathogens and S. salivarius strains
[2]; 2.5% w/w raffinose, compared with K12 and M18
  induction of inhibitory effect in other S. salivarius strains, exception ATCC 7073: does not induce same inhibitory effect
[2]; supplemented with 2.5% w/w raffinose
  antimicrobial activity of S. salivarius strain ATCC 7073: antimicrobial activity
[3]
  antimicrobial activity of K12 against halitosis-causing gram-negative bacteria: inhibit a variety of strains
[4]; 1.5% (w/v) raffinose
  change in zone of inhibition size M. catarrhalis TW2: 31 mm

## O=C[C@H](O)[C@@H](O)[C@@H](O)[C@H](O)CO [Galactose, D-galactose]
[1]; Galactose 0.5% w/w
  Total stains inhibited: 5/6
[1]; Galactose 1.25% w/w
  Total stains inhibited: 5/7
[1]; Galactose 1.7% w/w
  Total stains inhibited: 4/7
[1]; Galactose 2.5% w/w
  Total stains inhibited: 4/7
[1]; Galactose 3.3% w/w
  Total stains inhibited: 2/7
[1]; Galactose 5% w/w
  Total stains inhibited: 0/7
[1]; saccharide 3.3% w/v
  Total strains inhibited: 0/3
[1]; saccharide range 0.83%-3.3% w/v
  Total strains inhibited: 1/3
[1]; only at 0.5% w/w Galactose
  inhibitory activity (potency) and spectrum of Blis K12 and Blis M18: enhanced inhibitory activity
[2]; 0.5% w/w galactose, compared with K12 and M18
  induction of inhibitory effect in other S. salivarius strains: does not induce the same inhibitory effect
[3]
  antimicrobial activity of K12 against halitosis-causing gram-negative bacteria: did not induce antimicrobial activity
[4]; 1.0% (w/v) galactose
  increase in zone of inhibition M. catarrhalis TW2: 13 mm
[4]; 1.5% (w/v) galactose
  increase in zone of inhibition M. catarrhalis TW2: 23 mm
